Experimental data reported in US5089623A, “Certain imidate insecticides” (Imperial Chemical Industries Plc, priority 1990, dated 1992).

Tests used:
Type in all cases: in vivo
[1] = test system: Housefly [Musca domestica]; assay: Housefly insecticidal test (HF); settings: per 25 female houseflies, 48 hours
[2] = test system: Black Bean Aphid [Aphis fabae (Scop.)]; assay: Black bean aphid test (BBA); settings: percent of test compound in sprayed solution, 48 hours
Method: The compounds in Tables 1 and 2 above were tested for insecticidal activity using the following testing procedures. LC50 values, based on the results of these tests and calculated according to dosage-mortality curves, are expressed in Table 3.
Black Bean Aphid [Aphis fabae (Scop.)]
Nasturtium plants (Tropaeolum sp.) approximately 5 cm tall, were transplanted into sandy loam soil in small cups and infested with 25-50 black bean aphids of mixed ages. Twenty-four hours later they were sprayed to the point of runoff with 50-50 acetone-water solutions of the test compounds. Treated plants were held in the greenhouse and mortality was recorded after 48 hours. Test concentrations ranged from 0.05% downward. The LC-50 value is expressed below in Table 3 under the heading "BBA" in terms of percent of the test compound in the sprayed solution.

[3] = test system: Tobacco Budworm [Heliothis virescens (Fabricius)]; assay: Tobacco budworm contact test (TBW-C); settings: second-instar larvae, 5 days, percent in solution
In short: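 Cotton cotyledons dipped 2–3 s in compound in 50:50 acetone–water, dried, then infested with 5 second-instar larvae and held 5 days at high humidity before scoring mortality.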

[4] = test system: Tobacco Budworm [Heliothis virescens (Fabricius)] eggs; assay: Tobacco budworm egg test (TBW-E); settings: percent in solution
[5] = test system: Beet Armyworm (Spodoptera exigua); assay: Beet armyworm test (BAW); settings: second-instar larvae, five days, percent in solution
In short: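 Sugar beet leaves were dipped 2-3 s in compound diluted in 50-50 acetone-water, dried, then infested with five second-instar larvae in humid dishes. Mortality was scored after five days at concentrations from 0.1% downward. LC50 was taken from dosage-mortality curves as percent compound in solution.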

[6] = test system: Cabbage Looper [Trichoplusia ni (Hubner)]; assay: Cabbage looper test (CL); settings: second-instar larvae, 3-5 days, percent in solution
[7] = test system: Aster Leafhopper [Macrosteles fascifrens (Stal)]; assay: Aster leafhopper test (LH); settings: adults/nymphs, 48 hours, percent in solution
[8] = test system: Rice water weevil [Lissorhoptrus oryzophilus (Kuschel)]; assay: Rice water weevil test (RWW); settings: per weevil, topical, female adults, 48 hours
[9] = test system: Maize weevil [Sitophilus Zeamais (Motschulsky)]; assay: Maize weevil test (MW); settings: adult weevils, treated corn seeds, 48 hours, percent in solution
In short: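 Adult weevils (10) were placed with four corn seeds that had been dipped 2-3 s in compound dissolved in 50:50 acetone:water, then dried, and held at about 25° C. Mortality was scored at 48 h. LC50 was taken from dosage-mortality curves and expressed as percent compound in solution, from a 0.01% top concentration.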

| Structure (SMILES) | LC50 HF [1] [µg] | LC50 BBA [2] [%] | LC50 TBW C [3] [%] | LC50 TBW E [4] [%] | LC50 BAW [5] [%] | LC50 CL [6] [%] | LC50 LH [7] [%] | LC50 RWW [8] [µg] | LC50 MW [9] [%] |
| --- | --- | --- | --- | --- | --- | --- | --- | --- | --- |
| CC(C)C(=Nc1ccc(F)c(Cl)c1)OCc1ccc(F)c(Oc2ccccc2)c1 [Compound 82] | 2.5 | 0.00021 | 0.0008 | 0.006 | 0.0025 | 0.00018 | 0.0001 | 0.086 | – |
| CC(C)C(=Nc1ccc(F)c(F)c1F)OCc1ccc(F)c(Oc2ccc(F)cc2)c1 [Compound 349] | 4.9 | > 0.05 | 0.0004 | > 0.1 | > 0.1 | 0.00007 | – | > 2.5 | > 0.01 |
